Laboratory results taken from patent US7585859B2, “PDE4B inhibitors and uses therefor” (Plexxikon, Inc., priority 2004, dated 2009).
pIC50: −log10 of the molar value. Where two headings read alike, the source gives them in different places.

Legend:
[1] = target: T1, PDE4B: The catalytic domain of human PDE4B from S152-S528 (Homo sapiens, UniProt Q07343); experiment: PDE4 IC50 determination by Scintillation Proximity Assay, PDE4B; type: biochemical
T1 construct: His6 (N); thrombin cleavage site (N); made in house; host or cells: E. coli
T1 sequence (Q07343 with tags, fused parts or gaps): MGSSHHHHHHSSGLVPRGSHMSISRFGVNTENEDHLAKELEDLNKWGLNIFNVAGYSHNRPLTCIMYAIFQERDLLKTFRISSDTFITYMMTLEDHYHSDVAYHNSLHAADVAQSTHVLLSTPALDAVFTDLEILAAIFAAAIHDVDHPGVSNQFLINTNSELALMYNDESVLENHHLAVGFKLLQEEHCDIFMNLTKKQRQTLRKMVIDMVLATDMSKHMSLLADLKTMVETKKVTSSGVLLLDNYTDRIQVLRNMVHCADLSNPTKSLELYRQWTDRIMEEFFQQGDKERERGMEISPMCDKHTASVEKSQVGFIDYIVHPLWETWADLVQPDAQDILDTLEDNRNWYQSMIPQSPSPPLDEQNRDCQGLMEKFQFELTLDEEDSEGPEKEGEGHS
Outline: (§1)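 Scintillation counts reflected [^3H]AMP captured on yttrium silicate SPA beads after enzyme hydrolysed [^3H]cAMP for 30 min at 30°. PDE4B was used at 80 ng/ml and PDE4D at 4 ng/ml. IC50 values came from non-linear regression.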

[2] = target: T2, PDE4D (Homo sapiens, UniProt Q08499); experiment: PDE4 IC50 determination by Scintillation Proximity Assay, PDE4D; type: biochemical
T2 construct: PDE4D: The catalytic domain of human PDE4B from S3 16-V692; His6 (N); thrombin cleavage site (N); made in house; host or cells: E. coli
T2 sequence (Q08499 380-756): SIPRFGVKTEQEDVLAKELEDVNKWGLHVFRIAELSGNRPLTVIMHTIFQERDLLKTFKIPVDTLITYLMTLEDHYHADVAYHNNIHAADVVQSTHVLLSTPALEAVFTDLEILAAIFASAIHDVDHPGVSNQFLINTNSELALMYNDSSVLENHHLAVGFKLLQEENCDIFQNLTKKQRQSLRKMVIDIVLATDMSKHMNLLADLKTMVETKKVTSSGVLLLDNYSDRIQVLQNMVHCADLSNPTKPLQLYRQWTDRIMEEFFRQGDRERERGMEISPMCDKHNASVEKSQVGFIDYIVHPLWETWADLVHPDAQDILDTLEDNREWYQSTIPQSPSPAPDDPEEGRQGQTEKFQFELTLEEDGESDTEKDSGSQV
Outline: as §1

[3] = Table 1B, Formula I compounds, read-out: IC50 PDE4B
[4] = Table 1B, Formula I compounds, read-out: IC50 PDE4D
[5] = first part of Table 2B (2-1 to 2-22), read-out: IC 50 vs. indicated assay PDE4B
[6] = first part of Table 2B (2-1 to 2-22), read-out: IC 50 vs. indicated assay PDE4D
[7] = second part of Table 2B (2-23 to 2-103), column 3, column is PDE4B in first part, read-out: IC 50 vs. indicated assay h TNFα
[8] = second part of Table 2B (2-23 to 2-103), column 5, column is PDE4D in first part, read-out: IC 50 vs. indicated assay h TNFα

Row | SMILES | pIC50 [1, 5] | pIC50 [2, 6] | pIC50 [1, 7] | pIC50 [2, 8] | further results
1 | CCC(CC)Nc1sc(C(=O)c2ccc(Oc3ccccc3)cc2)c(N)c1C#N [Compound 1-229, 4-Amino-2-(1-ethyl-propylamino)-5-(4-phenoxy-benzoyl)-thiophene-3-carbonitrile] |  |  |  |  | pIC50 [1, 3]: > 5.00; pIC50 [2, 4]: > 5.00
2 | CC(C)Nc1sc(C(=O)c2ccc(Oc3ccccc3)cc2)c(N)c1C#N [Compound 1-230, 4-Amino-2-isopropylamino-5-(4-phenoxy-benzoyl)-thiophene-3-carbonitrile] |  |  |  |  | pIC50 [1, 3]: > 5.00; pIC50 [2, 4]: > 5.00
3 | N#Cc1c(NC2CCCC2)sc(C(=O)c2ccc(Oc3ccccc3)cc2)c1N [Compound 1-231, 4-Amino-2-cyclopentylamino-5-(4-phenoxy-benzoyl)-thiophene-3-carbonitrile] |  |  |  |  | pIC50 [1, 3]: > 5.00; pIC50 [2, 4]: > 5.00
4 | CCC(C)Nc1sc(C(=O)c2ccc(Oc3ccccc3)cc2)c(N)c1C#N (stereo not drawn) [Compound 1-232, 4-Amino-2-sec-butylamino-5-(4-phenoxy-benzoyl)-thiophene-3-carbonitrile] |  |  |  |  | pIC50 [1, 3]: > 5.00; pIC50 [2, 4]: > 5.00
5 | Cc1sc(-c2ccccc2)cc1C(=O)c1sc(NC2CCCC2)c(C#N)c1N [Compound 1-234, 4-Amino-2-cyclopentylamino-5-(2-methyl-5-phenyl-thiophene-3-carbonyl)-thiophene-3-carbonitrile] |  |  |  |  | pIC50 [1, 3]: > 5.00; pIC50 [2, 4]: > 5.00
6 | N#Cc1c(NC2CCCC2)sc(C(=O)c2csc(-c3ccccc3)n2)c1N [Compound 1-235, 4-Amino-2-cyclopentylamino-5-(2-phenyl-thiazole-4-carbonyl)-thiophene-3-carbonitrile] |  |  |  |  | pIC50 [1, 3]: > 5.00; pIC50 [2, 4]: > 5.00
7 | CCOC(=O)c1cc(C(=O)c2sc(Nc3ccc(OC)cc3)nc2N)on1 [Compound 2-2, 5-[4-Amino-2-(4-methoxy-phenylamino)-thiazole-5-carbonyl]-isoxazole-3-carboxylic acid ethyl ester] | > 5.00 | > 5.00 |  |  | 
8 | CCOC(=O)c1cc(C(=O)c2sc(Nc3ccc(Oc4ccccc4)cc3)nc2N)on1 [Compound 2-3, 5-[4-Amino-2-(4-phenoxy-phenylamino)-thiazole-5-carbonyl]-isoxazole-3-carboxylic acid ethyl ester] | < 5.00 | < 5.00 |  |  | 
9 | CCOC(=O)c1cc(C(=O)c2sc(NC3CCCC3)nc2N)on1 [Compound 2-4, 5-(4-Amino-2-cyclopentylamino-thiazole-5-carbonyl)-isoxazole-3-carboxylic acid ethyl ester] | > 5.00 | > 5.00 |  |  | 
10 | CCOC(=O)c1cc(C(=O)c2sc(NC3CC3)nc2N)on1 [Compound 2-5, 5-(4-Amino-2-cyclopropylamino-thiazole-5-carbonyl)-isoxazole-3-carboxylic acid ethyl ester] | > 5.00 | > 5.00 |  |  | 
11 | COc1ccc(Nc2nc(N)c(C(=O)c3cc(-c4ccccc4)no3)s2)cc1 [Compound 2-7, [4-Amino-2-(4-methoxy-phenylamino)-thiazol-5-yl]-(3-phenyl-isoxazol-5-yl)-methanone] | > 5.00 | > 5.00 |  |  | 
12 | Nc1nc(NC2CC2)sc1C(=O)c1cc(-c2ccccc2)no1 [Compound 2-10, (4-Amino-2-cyclopropylamino-thiazol-5-yl)-(3-phenyl-isoxazol-5-yl)-methanone] | > 5.00 | > 5.00 |  |  | 
13 | CC(C)Nc1nc(N)c(C(=O)c2cc(-c3ccccc3)no2)s1 [Compound 2-11, (4-Amino-2-isopropylamino-thiazol-5-yl)-(3-phenyl-isoxazol-5-yl)-methanone] | > 5.00 | > 5.00 |  |  | 
14 | Nc1nc(NC2CCCC2)sc1C(=O)c1cc(-c2ccc(Cl)cc2)no1 [Compound 2-12, (4-Amino-2-cyclopentylamino-thiazol-5-yl)-[3-(4-chloro-phenyl)-isoxazol-5-yl]-methanone] | > 5.00 | > 5.00 |  |  | 
15 | CC(C)Nc1nc(N)c(C(=O)c2cc(-c3ccc(Cl)cc3)no2)s1 [Compound 2-13, (4-Amino-2-isopropylamino-thiazol-5-yl)-[3-(4-chloro-phenyl)-isoxazol-5-yl]-methanone] | > 5.00 | > 5.00 |  |  | 
16 | CC(C)Nc1nc(N)c(C(=O)c2cc(-c3ccc(Cl)c(Cl)c3)no2)s1 [Compound 2-14, (4-Amino-2-isopropylamino-thiazol-5-yl)-[3-(3,4-dichloro-phenyl)-isoxazol-5-yl]-methanone] | > 5.00 | > 5.00 |  |  | 
17 | CC(C)CNc1nc(N)c(C(=O)c2cc(-c3ccc(Cl)c(Cl)c3)no2)s1 [Compound 2-15, (4-Amino-2-isobutylamino-thiazol-5-yl)-[3-(3,4-dichloro-phenyl)-isoxazol-5-yl]-methanone] | > 5.00 | > 5.00 |  |  | 
18 | CC(C)CNc1nc(N)c(C(=O)c2cc(-c3ccc(Cl)cc3)no2)s1 [Compound 2-16, (4-Amino-2-isobutylamino-thiazol-5-yl)-[3-(4-chloro-phenyl)-isoxazol-5-yl]-methanone] | > 5.00 | > 5.00 |  |  | 
19 | Nc1nc(NC2CCCC2)sc1C(=O)c1ccc(-c2ccccn2)s1 [Compound 2-17, (4-Amino-2-cyclopentylamino-thiazol-5-yl)-(5-pyridin-2-yl-thiophen-2-yl)-methanone] | > 5.00 | > 5.00 |  |  | 
20 | Nc1nc(NC2CCCC2)sc1C(=O)c1ccc(-c2ccccc2)s1 [Compound 2-18, (4-Amino-2-cyclopentylamino-thiazol-5-yl)-(5-phenyl-thiophen-2-yl)-methanone] | > 5.00 | > 5.00 |  |  | 
21 | Cc1sc(-c2ccccc2)cc1C(=O)c1sc(NC2CCCC2)nc1N [Compound 2-20, (4-Amino-2-cyclopentylamino-thiazol-5-yl)-(2-methyl-5-phenyl-thiophen-3-yl)-methanone] | > 5.00 | > 5.00 |  |  | 
22 | Cc1c(C(=O)c2sc(NC3CCCC3)nc2N)cnn1-c1ccccc1 [Compound 2-21, (4-Amino-2-cyclopentylamino-thiazol-5-yl)-(5-methyl-1-phenyl-1H-pyrazol-4-yl)-methanone] | > 5.00 | > 5.00 |  |  | 
23 | Cc1nc(-c2cnccn2)sc1C(=O)c1sc(NC2CCCC2)nc1N [Compound 2-22, (4-Amino-2-cyclopentylamino-thiazol-5-yl)-(4-methyl-2-pyrazin-2-yl-thiazol-5-yl)-methanone] | > 5.00 | > 5.00 |  |  | 

Continued, in another order:

Row | pIC50 [1, 5] | pIC50 [2, 6] | pIC50 [1, 7] | pIC50 [2, 8] | SMILES | further results
24 |  |  | > 5.00 | > 5.00 | Nc1nc(Nc2ccc(Cl)cc2)sc1C(=O)c1cccc([N+](=O)[O-])c1 [Compound 2-24, [4-Amino-2-(4-chloro-phenylamino)-thiazol-5-yl]-(3-nitro-phenyl)-methanone] | 
25 |  |  | > 5.00 | > 5.00 | Nc1nc(Nc2ccccc2)sc1C(=O)c1ccccc1 [Compound 2-25, (4-Amino-2-phenylamino-thiazol-5-yl)-phenyl-methanone] | 
26 |  |  | > 5.00 | > 5.00 | Nc1nc(Nc2ccc(Cl)cc2)sc1C(=O)c1ccccc1 [Compound 2-26, [4-Amino-2-(4-chloro-phenylamino)-thiazol-5-yl]-phenyl-methanone] | 
27 |  |  | > 5.00 | > 5.00 | Nc1nc(Nc2ccc(Cl)cc2)sc1C(=O)c1ccc(Br)cc1 [Compound 2-27, [4-Amino-2-(4-chloro-phenylamino)-thiazol-5-yl]-(4-bromo-phenyl)-methanone] | 
28 |  |  | > 5.00 | > 5.00 | Nc1nc(Nc2ccc(F)cc2)sc1C(=O)c1ccc(F)cc1 [Compound 2-28, [4-Amino-2-(4-fluoro-phenylamino)-thiazol-5-yl]-(4-fluoro-phenyl)-methanone] | 
29 |  |  | > 5.00 | > 5.00 | Nc1nc(Nc2ccccc2Cl)sc1C(=O)c1ccccc1 [Compound 2-29, [4-Amino-2-(2-chloro-phenylamino)-thiazol-5-yl]-phenyl-methanone] | 
30 |  |  | > 5.00 | > 5.00 | COc1ccc(C(=O)c2sc(Nc3ccccc3)nc2N)cc1OC [Compound 2-31, (4-Amino-2-phenylamino-thiazol-5-yl)-(3,4-dimethoxy-phenyl)-methanone] | 
31 |  |  | > 5.00 | > 5.00 | Nc1nc(Nc2cc(Cl)ccc2Cl)sc1C(=O)c1ccccc1 [Compound 2-32, [4-Amino-2-(2,5-dichloro-phenylamino)-thiazol-5-yl]-phenyl-methanone] | 
32 |  |  | > 5.00 | > 5.00 | Nc1nc(Nc2cccc(C(=O)O)c2)sc1C(=O)c1ccccc1 [Compound 2-36, 3-(4-Amino-5-benzoyl-thiazol-2-ylamino)-benzoic acid] | 
33 |  |  | > 5.00 | > 5.00 | COc1ccc(C(=O)c2sc(Nc3ccccc3)nc2N)cc1 [Compound 2-37, (4-Amino-2-phenylamino-thiazol-5-yl)-(4-methoxy-phenyl)-methanone] | 
34 |  |  | > 5.00 | > 5.00 | COc1ccc(Nc2nc(N)c(C(=O)c3ccccc3)s2)cc1 [Compound 2-39, [4-Amino-2-(4-methoxy-phenylamino)-thiazol-5-yl]-phenyl-methanone] | 
35 |  |  | > 5.00 | > 5.00 | Nc1nc(Nc2c(Cl)cccc2Cl)sc1C(=O)c1ccc(OC(F)F)cc1 [Compound 2-42, [4-Amino-2-(2,6-dichloro-phenylamino)-thiazol-5-yl]-(4-difluoromethoxy-phenyl)-methanone] | 
36 |  |  | > 5.00 | < 5.00 | Nc1nc(Nc2c(Cl)cc(Cl)cc2Cl)sc1C(=O)c1ccccc1 [Compound 2-43, [4-Amino-2-(2,4,6-trichloro-phenylamino)-thiazol-5-yl]-phenyl-methanone] | 
